From patent US20060019241A1, “Na+ and CI-coupled transport system for endogenous opioid peptides” (priority 2004, published 2006)
Entries after “also recorded” stand apart in the source; their conditions may differ.

Experiments:
[1] = test system: deltorphin II uptake inducible by rMC-1 mRNA in X. laevis oocytes; assay: Deltorphin II uptake in X. laevis oocytes injected with rMC-1 mRNA; format: cell-based, rat; conditions: X. laevis oocytes injected with rMC-1 poly(A)+ mRNA, deltorphin II 125 nM
Method: Therefore, functional expression of the deltorphin II transport system in X. laevis oocytes will be used to clone this transport system. […] Poly(A)+ mRNA was prepared from this cell line for functional expression studies in X. laevis oocytes.

[2] = test system: enkephalin/endorphin transport system in SK—N—SH cells; assay: [^3H]deltorphin II uptake in SK—N—SH cells, effect of peptides and amino acids; format: cell-based, human; conditions: for influence on kinetics of deltorphin II uptake / type of inhibition: 250 μM L-Lysine; for effect on [^3H]deltorphin II uptake (in words): test substance 1 mM
Method: (§1) Uptake measurements in control ARPE-19 cells and Tat-ARPE-19 cells. Control ARPE-19 cells and Tat-ARPE-19 cells were maintained in 75-cm^2 culture flasks in Dulbecco's modified Eagle's medium/F12 medium (1:1, volume/volume (v/v)) in the presence of fetal bovine serum (10%) and G418 (100 μg/ml). For uptake measurements, cells were released by trypsin treatment and seeded in 24-well culture plates at an initial density of 0.1×10^6 cells/well. The culture medium was replaced with fresh medium on the second day following the initial seeding and uptake measurements were made on the third day. […] After incubation at 37° C. for a desired time, uptake was terminated by the removal of the medium and washing of the cells with ice-cold uptake buffer. The cells were then dissolved in 1% SDS in 0.2 M NaOH and used for measurement of radioactivity. The uptake buffer in most experiments was 25 mM Hepes/Tris (pH 7.5), containing 140 mM NaCl, 5.4 mM KCl, 1.8 mM CaCl2, 0.8 mM MgSO4 and 5 mM glucose.
Since enkephalins and endorphins are relevant to pain perception and to further provide evidence in support of a role for the transport system in opioidergic neurotransmission, the human neuronal cell line SK—N—SH was tested for expression of the transport system. […] Unless otherwise specified, procedures are as detailed in Example 1.
The concentration of enkephalins and dynorphins was 1 mM.
Finally, the relative affinity of various enkephalins and dynorphins for the transport system in SK—N—SH cells was determined.
To the further characterize the opioid transport of the present invention, various specific peptides that act as positive modulators of the enkephalin/endorphin transport system in the human neuronal cell line SK—N—SH were identified. Unless otherwise specified, procedures are as detailed in Example 1. […] Uptake was measured in the presence of NaCl for 30 minutes. The concentration of the dipeptides was 1 mM.
Uptake was measured in the presence of NaCl for 30 minutes. The concentration of the tripeptides was 1 mM.
Unless otherwise specified, procedures are as described in more detail in Example 1.
The dose-response relationship for the inhibition of the enkephalin/endorphin transport system by L-Lysine and its methyl and ethyl esters is shown in FIG. 15.

SK—N—SH cells = assay: L-lysine uptake in SK—N—SH cells; format: cell-based, human
Method: Whether or not L-lysine is a transportable substrate for the opioid peptide transport system was tested. For this, uptake of L-lysine was studied and the influence of Na^+ and opioid peptides assessed in SK—N—SH cells.

[3] = test system: opioid peptide transport system in rMC-1 cells; assay: Opioid peptide transport in rMC-1 cells; format: cell-based, rat
[4] = test system: deltorphin II transport system in Tat-ARPE-19 cells; assay: Inhibition of [^3H]deltorphin II uptake in Tat-ARPE-19 cells; format: cell-based, human; conditions: Tat-ARPE-19 cells, [^3H]deltorphin II 50 nM, 30 minutes, NaCl, inhibitor 1 mM
From the text: (§2) Stable transfection of ARPE-19 cells with pcDNA-Tat cDNA. The pGEM2-Tat cDNA construct contained as the insert a 295 basepair (bp) fragment encoding the first exon of HIV-1 Tat gene joined to a 145 bp pET3A transcription terminator. The entire insert (440 bp) was removed from the construct by digestion with PstI and EcoRI and ligated into the multiple cloning region of pcDNA3.1 (−) vector at PstI/EcoRI site so that the insert is downstream of the cytomegalovirus (CMV) promoter. The resultant construct was sequenced to confirm the orientation of the insert. This construct was electroporated into ARPE-19 cells and the stably transfected cell clones were isolated in the presence of Geneticin (G418). To serve as a control, empty pcDNA3.1 vector was electroporated into ARPE-19 cells in an identical manner and the clones harboring the vector were selected by G418 resistance.
as §1
When the influence of Na^+ on the uptake process was investigated, the concentration of NaCl in the uptake buffer was adjusted, as desired, by isoosmotically replacing NaCl with N-methyl-D-glucamine chloride. To assess the influence of Cl^− on the uptake process, the composition of the uptake medium was modified by replacing KCl and CaCl2 with equimolar concentrations of potassium gluconate and calcium gluconate and the concentration of NaCl was adjusted, as desired, by iso-osmotically replacing NaCl with sodium gluconate. Saturation kinetics were analysed by fitting the data to the Michaelis-Menten equation. The Michaelis-Menten constant, Kt, was calculated by non-linear regression analysis and then confirmed by linear regression. Na^+- and Cl^−-activation kinetics were analyzed by fitting the data to the Hill equation and the Hill coefficients for Na^+ and Cl^− (h; the number of Na^+ and Cl^− ions involved in the activation process) and the K0.5 values (the concentration of Na^+ and Cl^−-needed for half-maximal activation) were determined from the analysis. Again, these constants were first calculated by non-linear regression methods and subsequently confirmed by linear regression methods. Experiments were repeated three times in duplicate and the results are given as means±S.E.M.
(§3) Substrate specificity of the deltorphin transport system. […] These peptides consisted of 4-13 amino acids.
Relative affinities of endogenous opioid peptides for the transport system.

[5] = test system: deltorphin II transport system in control ARPE-19 cells; assay: Inhibition of [^3H]deltorphin II uptake in control ARPE-19 cells; format: cell-based, human; conditions: [^3H]deltorphin II 50 nM, 30 minutes, NaCl, peptide/antagonist 1 mM
From the text: as §2, §1, §3

C[C@]12CC[C@@H]3c4ccc(OS(=O)(=O)O)cc4CC[C@H]3[C@@H]1CCC2=O [estrone-3-sulfate]
inhibition of mRNA-induced deltorphin II uptake (in words) [1]: only a slight inhibition; also recorded: only slightly inhibited

NCCCC[C@H](N)C(=O)O [L-Lys, L-lysine]
interaction with the opioid peptide transport system (in words, summary of Examples) [2]: inhibited; also recorded: not a transportable substrate but a blocker
influence on kinetics of deltorphin II uptake / type of inhibition ([2]; listed as L-Lysine): decreased the maximal velocity of the transport system without affecting the affinity for deltorphin II; also recorded: decreasing the maximal velocity without affecting the substrate affinity
influence on kinetics of deltorphin II uptake / type of inhibition ([2]; listed as L-lysine): non-competitive
Deltorphin II uptake ([2]; [^3H]deltorphin II 25 nM, NaCl, 30 minutes, compound 1 mM): 0.26 ± 0.01 pmol/30 min/mg protein
effect on [^3H]deltorphin II uptake (in words) ([2]; [^3H]deltorphin II 25 nM, NaCl, 30 minutes, listed as L-Lysine): significant inhibition; also recorded: most potent inhibitors
effect on [^3H]deltorphin II uptake (in words) ([2]; [^3H]deltorphin II 25 nM, NaCl, 30 minutes, listed as L-lysine): greatest inhibition; also recorded: inhibit the uptake to a marked extent
Ki ([2]; read-out: Ki for inhibition of deltorphin II uptake, dose-response studies): 160 ± 19 µM
L-lysine uptake: influence of Na^+ and opioid peptides; transportable substrate or not (SK—N—SH cells): not Na^+-dependent and is insensitive to opioid peptides; also recorded: not a transportable substrate
interaction with the opioid peptide transport system (in words) [3]: inhibited; also recorded: not a transportable substrate but a blocker

YGGFLRRQF [Dynorphin B (1-9)]
[^3H] Deltorphin II uptake [4]: 0.08 ± 0.01 pmol/mg protein/30 min
[^3H] Deltorphin II uptake (%) of control ([4]; control = 100): 1%
[^3H] Deltorphin II uptake ([5]; control ARPE-19 cells (pcDNA vector alone)): 0.06 ± 0.000 pmol/mg protein/30 min
[^3H] Deltorphin II uptake (%) of control ([5]; control ARPE-19 cells, control = 100): 5%
inhibition of mRNA-induced deltorphin II uptake (in words) ([1]; listed as dynorphin B 1-9): completely inhibitable
inhibition of mRNA-induced deltorphin II uptake (in words) ([1]; listed as dynorphin B1-9): completely inhibited
